Data taken from publication PMC6099728, “Investigation of Hydro-Lipophilic Properties of N-Alkoxyphenylhydroxynaphthalenecarboxamides” (Molecules : A Journal of Synthetic Chemistry and Natural …, 2018).

Assay: Lipophilicity determination by RP-HPLC (capacity factor k / logk)
Type: physicochemical
Settings: for logk: isocratic MeOH 72%/H2O 28%, C18 column, 40 °C; for πA (distributive parameter π calculated from logk) / πB (distributive parameter π calculated from logk) / πC (distributive parameter π calculated from logk): π = logkS − logkU; for πA (distributive parameter π calculated from logk): unsubstituted 1a as reference; for πB (distributive parameter π calculated from logk): unsubstituted 1b as reference; for πC (distributive parameter π calculated from logk): unsubstituted 1c as reference
Text: A HPLC separation module Waters Alliance 2695 XE equipped with a Waters Dual Absorbance Detector 2486 (Waters Corp., Milford, MA, USA) was used. A chromatographic column Symmetry® C18 5 µm, 4.6 × 250 mm, Part No. W21751W016 (Waters Corp.) was used. The HPLC separation process was monitored by Empower® 3 Chromatography Manager Software (Waters Corp.). Isocratic elution by a mixture of MeOH p.a. (72%) and H2O-HPLC Mili-Q grade (28%) as a mobile phase was used. The total flow of the column was 1.0 mL/min, the injection was 20 μL, the column temperature was 40 °C, and the sample temperature was 10 °C. A detection wavelength of 210 nm was chosen. The KI methanolic solution was used for the determination of dead time (tD). Retention times (tR) were measured in minutes. Capacity factors k were calculated using the Empower® 3 Chromatography Manager Software according to the formula k = (tR − tD)/tD, where tR is the retention time of the solute, while tD is the dead time obtained using an unretained analyte. Each experiment was repeated three times. Logk, which was calculated from the capacity factor k, is used as the lipophilicity index converted to the logP scale.

logk (series A)	πA (distributive parameter π calculated from logk) (series A)	logk (series B)	πB (distributive parameter π calculated from logk) (series B)	logk (series C)	πC (distributive parameter π calculated from logk) (series C)	Structure (SMILES)
0.4916	0.15					CCOc1ccc(NC(=O)c2cc3ccccc3cc2O)cc1 [7a]
		0.7700	0.15			CCOc1ccc(NC(=O)c2ccc3ccccc3c2O)cc1 [7b]
				0.0542	0.27	CCOc1ccc(NC(=O)c2c(O)ccc3ccccc23)cc1 [7c]
0.7221	0.74					CCCOc1ccccc1NC(=O)c1cc2ccccc2cc1O [8a]
		1.3103	0.74			CCCOc1ccccc1NC(=O)c1ccc2ccccc2c1O [8b]
				0.6639	0.73	CCCOc1ccccc1NC(=O)c1c(O)ccc2ccccc12 [8c]
0.7672	0.69					CCCOc1cccc(NC(=O)c2cc3ccccc3cc2O)c1 [9a]
		1.0215	0.69			CCCOc1cccc(NC(=O)c2ccc3ccccc3c2O)c1 [9b]
				0.3209	0.65	CCCOc1cccc(NC(=O)c2c(O)ccc3ccccc23)c1 [9c]
0.6963	0.75					CCCOc1ccc(NC(=O)c2cc3ccccc3cc2O)cc1 [10a]
		0.9588	0.75			CCCOc1ccc(NC(=O)c2ccc3ccccc3c2O)cc1 [10b]
				0.2622	0.72	CCCOc1ccc(NC(=O)c2c(O)ccc3ccccc23)cc1 [10c]
0.9136	1.08					CCCCOc1ccccc1NC(=O)c1cc2ccccc2cc1O [11a]
		1.5122	1.08			CCCCOc1ccccc1NC(=O)c1ccc2ccccc2c1O [11b]
				0.8578	1.04	CCCCOc1ccccc1NC(=O)c1c(O)ccc2ccccc12 [11c]
0.9711	1.02					CCCCOc1cccc(NC(=O)c2cc3ccccc3cc2O)c1 [12a]
		1.2088	1.02			CCCCOc1cccc(NC(=O)c2ccc3ccccc3c2O)c1 [12b]
				0.5161	1.00	CCCCOc1cccc(NC(=O)c2c(O)ccc3ccccc23)c1 [12c]
0.8961	1.08					CCCCOc1ccc(NC(=O)c2cc3ccccc3cc2O)cc1 [13a]
		1.1537	1.08			CCCCOc1ccc(NC(=O)c2ccc3ccccc3c2O)cc1 [13b]

logk (series A)	πA (distributive parameter π calculated from logk) (series A)	logk (series B)	πB (distributive parameter π calculated from logk) (series B)	logk (series C)	πC (distributive parameter π calculated from logk) (series C)	Structure (SMILES)
				0.4604	1.05	CCCCOc1ccc(NC(=O)c2c(O)ccc3ccccc23)cc1 [13c]
0.6360	0.66					CC(C)Oc1ccccc1NC(=O)c1cc2ccccc2cc1O [14a]
		1.2556	0.66			CC(C)Oc1ccccc1NC(=O)c1ccc2ccccc2c1O [14b]
				0.6145	0.66	CC(C)Oc1ccccc1NC(=O)c1c(O)ccc2ccccc12 [14c]
0.6723	0.61					CC(C)Oc1cccc(NC(=O)c2cc3ccccc3cc2O)c1 [15a]
		0.9355	0.61			CC(C)Oc1cccc(NC(=O)c2ccc3ccccc3c2O)c1 [15b]
				0.2214	0.57	CC(C)Oc1cccc(NC(=O)c2c(O)ccc3ccccc23)c1 [15c]
0.6017	0.59					CC(C)Oc1ccc(NC(=O)c2cc3ccccc3cc2O)cc1 [16a]
		0.8648	0.59			CC(C)Oc1ccc(NC(=O)c2ccc3ccccc3c2O)cc1 [16b]
				0.1619	0.55	CC(C)Oc1ccc(NC(=O)c2c(O)ccc3ccccc23)cc1 [16c]
0.7956	1.00					CCC(C)Oc1ccccc1NC(=O)c1cc2ccccc2cc1O (stereo not drawn) [17a]
		1.4424	1.00			CCC(C)Oc1ccccc1NC(=O)c1ccc2ccccc2c1O (stereo not drawn) [17b]
				0.7927	0.98	CCC(C)Oc1ccccc1NC(=O)c1c(O)ccc2ccccc12 (stereo not drawn) [17c]
0.8670	0.95					CCC(C)Oc1cccc(NC(=O)c2cc3ccccc3cc2O)c1 (stereo not drawn) [18a]
		1.1291	0.95			CCC(C)Oc1cccc(NC(=O)c2ccc3ccccc3c2O)c1 (stereo not drawn) [18b]
				0.4129	0.91	CCC(C)Oc1cccc(NC(=O)c2c(O)ccc3ccccc23)c1 (stereo not drawn) [18c]
0.7977	0.09					CCC(C)Oc1ccc(NC(=O)c2cc3ccccc3cc2O)cc1 (stereo not drawn) [19a]
		1.0518	0.94			CCC(C)Oc1ccc(NC(=O)c2ccc3ccccc3c2O)cc1 (stereo not drawn) [19b]
				0.3621	0.91	CCC(C)Oc1ccc(NC(=O)c2c(O)ccc3ccccc23)cc1 (stereo not drawn) [19c]

The remaining lines, values behind:

Structure (SMILES)	logk (series A)	πA (distributive parameter π calculated from logk) (series A)	logk (series B)	πB (distributive parameter π calculated from logk) (series B)	logk (series C)	πC (distributive parameter π calculated from logk) (series C)
O=C(Nc1ccccc1)c1cc2ccccc2cc1O [1a]	0.3927	0				
O=C(Nc1ccccc1)c1ccc2ccccc2c1O [1b]			0.6755	0		
O=C(Nc1ccccc1)c1c(O)ccc2ccccc12 [1c]					−0.0581	0
COc1ccccc1NC(=O)c1cc2ccccc2cc1O [2a]	0.3982	0.09				
COc1ccccc1NC(=O)c1ccc2ccccc2c1O [2b]			0.8593	0.09		
COc1ccccc1NC(=O)c1c(O)ccc2ccccc12 [2c]					0.2518	0.05
COc1cccc(NC(=O)c2cc3ccccc3cc2O)c1 [3a]	0.4055	0.04				
COc1cccc(NC(=O)c2ccc3ccccc3c2O)c1 [3b]			0.6828	0.04		
COc1cccc(NC(=O)c2c(O)ccc3ccccc23)c1 [3c]					0.1106	0.02
COc1ccc(NC(=O)c2cc3ccccc3cc2O)cc1 [4a]	0.3374	−0.15				
COc1ccc(NC(=O)c2ccc3ccccc3c2O)cc1 [4b]			0.6239	−0.15		
COc1ccc(NC(=O)c2c(O)ccc3ccccc23)cc1 [4c]					−0.1149	−0.19
CCOc1ccccc1NC(=O)c1cc2ccccc2cc1O [5a]	0.5570	0.40				
CCOc1ccccc1NC(=O)c1ccc2ccccc2c1O [5b]			1.0940	0.40		
CCOc1ccccc1NC(=O)c1c(O)ccc2ccccc12 [5c]					0.4759	0.39
CCOc1cccc(NC(=O)c2cc3ccccc3cc2O)c1 [6a]	0.5682	0.36				
CCOc1cccc(NC(=O)c2ccc3ccccc3c2O)c1 [6b]			0.8353	0.36		
CCOc1cccc(NC(=O)c2c(O)ccc3ccccc23)c1 [6c]					0.1175	0.34
